Experimental data: publication PMC11882969 (Nature Communications, 2025)
Where “and” joins values, the source holds several entries; their conditions need not be identical. Equal entries are not always repeated. Marks after values point to notes of the source that are not given here.

How the values were obtained:
hCB1 [1] = target: T1, hCB1 (Homo sapiens, UniProt P21554); assay: Lance Ultra cAMP accumulation assay, CHO cells; format: cell-based; design: expressed in transfected cells;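 note: human CB1R stably expressed in CHO cells, ligands co-incubated with forskolin at room temperature, read-out is lowering of forskolin-stimulated cAMP accumulation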
hCB1 [2] = target: T1, hCB1; assay: bioSensAll ebBRET signaling profiling, hCB1; format: cell-based; design: host or cells: HEK293SL cells, transient PEI transfection

T1 sequence (P21554 whole entry): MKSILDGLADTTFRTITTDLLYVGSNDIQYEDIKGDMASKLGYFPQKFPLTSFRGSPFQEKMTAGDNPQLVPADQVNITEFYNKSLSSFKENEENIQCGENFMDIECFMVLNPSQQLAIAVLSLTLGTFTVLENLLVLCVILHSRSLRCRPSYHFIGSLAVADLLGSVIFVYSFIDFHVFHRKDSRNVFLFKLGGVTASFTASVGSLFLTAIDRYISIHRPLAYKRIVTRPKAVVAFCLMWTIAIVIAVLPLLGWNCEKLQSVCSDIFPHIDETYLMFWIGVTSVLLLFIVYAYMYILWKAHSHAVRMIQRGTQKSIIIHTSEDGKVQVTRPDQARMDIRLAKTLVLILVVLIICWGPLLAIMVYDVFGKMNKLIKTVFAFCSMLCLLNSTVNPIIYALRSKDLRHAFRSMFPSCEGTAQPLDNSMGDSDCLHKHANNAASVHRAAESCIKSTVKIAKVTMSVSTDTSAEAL

Question: Which results are given for `COC(=O)C(C)(NC(=O)c1cc(C)n(-c2cccc(C(F)(F)F)c2)n1)c1cccs1` (stereo not shown) [‘4042]?
Answer: EC50 (hCB1 [1]): 3.3 nM; Lance Ultra cAMP pEC50 (hCB1 [1]): 8.5 [8.3 – 8.7]; Emax (hCB1 [1]; CHO): 78%; Barr2+GRK2 hCB1 (hCB1 [2]; Log [Compound] (M) -4.22186): 92.62* and 120.7*; G13 hCB1 (hCB1 [2]; Log [Compound] (M) -4.22186): 70.6599; G15 hCB1 (hCB1 [2]; Log [Compound] (M) -4.22186): 109.73 and 102.131; Gi1 hCB1 (hCB1 [2]; Log [Compound] (M) -4.22186): 104.966 and 104.552 and 101.354; Gi2 hCB1 (hCB1 [2]; Log [Compound] (M) -4.22186): 114.417 and 105.522; GoB hCB1 (hCB1 [2]; Log [Compound] (M) -4.22186): 107.662 and 102.746 and 100.082; Gq hCB1 (hCB1 [2]; Log [Compound] (M) -4.22186): 1205; Gs hCB1 (hCB1 [2]; Log [Compound] (M) -4.22186): 6574; Barr2+GRK2 hCB1 (hCB1 [2]; Log [Compound] (M) -4.63927): 82.3587 and 72.7006; G13 hCB1 (hCB1 [2]; Log [Compound] (M) -4.63927): 46.7858 and 87.1754; G15 hCB1 (hCB1 [2]; Log [Compound] (M) -4.63927): 108.775 and 92.8459; Gi1 hCB1 (hCB1 [2]; Log [Compound] (M) -4.63927): 101.502 and 110.826 and 98.3137; Gi2 hCB1 (hCB1 [2]; Log [Compound] (M) -4.63927): 122.075 and 85.154; GoB hCB1 (hCB1 [2]; Log [Compound] (M) -4.63927): 110.056 and 106.901 and 98.7991; Gq hCB1 (hCB1 [2]; Log [Compound] (M) -4.63927): 1175; Gs hCB1 (hCB1 [2]; Log [Compound] (M) -4.63927): 6296; Gz hCB1 (hCB1 [2]; Log [Compound] (M) -4.63927): 112.813 and 91.1447; Barr2+GRK2 hCB1 (hCB1 [2]; Log [Compound] (M) -5.05788): 70.2312 and 47.6394; G15 hCB1 (hCB1 [2]; Log [Compound] (M) -5.05788): 113.05 and 88.4535; Gi1 hCB1 (hCB1 [2]; Log [Compound] (M) -5.05788): 105.528 and 109.408 and 94.1617; Gi2 hCB1 (hCB1 [2]; Log [Compound] (M) -5.05788): 116.649 and 83.6719; GoB hCB1 (hCB1 [2]; Log [Compound] (M) -5.05788): 115.498 and 117.852 and 92.0047; Gq hCB1 (hCB1 [2]; Log [Compound] (M) -5.05788): 1109; Gs hCB1 (hCB1 [2]; Log [Compound] (M) -5.05788): 6591; Gz hCB1 (hCB1 [2]; Log [Compound] (M) -5.05788): 89.4695 and 99.3467; G13 hCB1 (hCB1 [2]; Log [Compound] (M) -5.47381): 42.3393 and 80.0269; G15 hCB1 (hCB1 [2]; Log [Compound] (M) -5.47381): 106.626 and 91.4256; Gi1 hCB1 (hCB1 [2]; Log [Compound] (M) -5.47381): 102.594 and 101.052 and 96.5342; Gi2 hCB1 (hCB1 [2]; Log [Compound] (M) -5.47381): 113.717 and 80.6941; GoB hCB1 (hCB1 [2]; Log [Compound] (M) -5.47381): 111.936 and 119.903 and 88.1947; Gq hCB1 (hCB1 [2]; Log [Compound] (M) -5.47381): 1096; Gs hCB1 (hCB1 [2]; Log [Compound] (M) -5.47381): 6432; Gz hCB1 (hCB1 [2]; Log [Compound] (M) -5.47381): 99.3173 and 98.4249; Barr2+GRK2 hCB1 (hCB1 [2]; Log [Compound] (M) -5.89285): 78.4199 and 57.3671; G15 hCB1 (hCB1 [2]; Log [Compound] (M) -5.89285): 110.351 and 94.8449; Gi1 hCB1 (hCB1 [2]; Log [Compound] (M) -5.89285): 96.0236 and 103.056 and 95.3776; Gi2 hCB1 (hCB1 [2]; Log [Compound] (M) -5.89285): 120.967 and 77.6348; GoB hCB1 (hCB1 [2]; Log [Compound] (M) -5.89285): 107.616 and 111.235 and 93.9859; Gq hCB1 (hCB1 [2]; Log [Compound] (M) -5.89285): 1179; Gs hCB1 (hCB1 [2]; Log [Compound] (M) -5.89285): 6305; Gz hCB1 (hCB1 [2]; Log [Compound] (M) -5.89285): 104.129 and 105.45 and 96.7384; Barr2+GRK2 hCB1 (hCB1 [2]; Log [Compound] (M) -6.31878): 80.7003 and 54.8939; G15 hCB1 (hCB1 [2]; Log [Compound] (M) -6.31878): 115.7 and 96.7912; Gi1 hCB1 (hCB1 [2]; Log [Compound] (M) -6.31878): 96.367 and 108.992 and 101.754; Gi2 hCB1 (hCB1 [2]; Log [Compound] (M) -6.31878): 121.929 and 79.8783; GoB hCB1 (hCB1 [2]; Log [Compound] (M) -6.31878): 95.5518 and 109.274 and 88.1947; Gq hCB1 (hCB1 [2]; Log [Compound] (M) -6.31878): 1143; Gs hCB1 (hCB1 [2]; Log [Compound] (M) -6.31878): 6312; Gz hCB1 (hCB1 [2]; Log [Compound] (M) -6.31878): 91.7649 and 96.1616 and 90.8724; Barr2+GRK2 hCB1 (hCB1 [2]; Log [Compound] (M) -6.72585): 68.6764 and 46.9799; G15 hCB1 (hCB1 [2]; Log [Compound] (M) -6.72585): 112.142 and 94.2925; Gi1 hCB1 (hCB1 [2]; Log [Compound] (M) -6.72585): 106.09 and 92.9585 and 96.5936; Gi2 hCB1 (hCB1 [2]; Log [Compound] (M) -6.72585): 109.48 and 81.9179; GoB hCB1 (hCB1 [2]; Log [Compound] (M) -6.72585): 86.2761 and 114.112 and 87.3057; Gq hCB1 (hCB1 [2]; Log [Compound] (M) -6.72585): 1077; Gs hCB1 (hCB1 [2]; Log [Compound] (M) -6.72585): 6405; Gz hCB1 (hCB1 [2]; Log [Compound] (M) -6.72585): 96.9343 and 94.4158 and 89.6782; Barr2+GRK2 hCB1 (hCB1 [2]; Log [Compound] (M) -7.14267): 59.7621 and 50.2774; G15 hCB1 (hCB1 [2]; Log [Compound] (M) -7.14267): 114.268 and 99.1321; Gi1 hCB1 (hCB1 [2]; Log [Compound] (M) -7.14267): 107.604 and 101.422 and 97.765; Gi2 hCB1 (hCB1 [2]; Log [Compound] (M) -7.14267): 109.219 and 83.8759; GoB hCB1 (hCB1 [2]; Log [Compound] (M) -7.14267): 86.7157 and 119.974 and 89.2869; Gq hCB1 (hCB1 [2]; Log [Compound] (M) -7.14267): 1043; Gs hCB1 (hCB1 [2]; Log [Compound] (M) -7.14267): 7002; Gz hCB1 (hCB1 [2]; Log [Compound] (M) -7.14267): 98.2797 and 100.101 and 88.7145; Barr2+GRK2 hCB1 (hCB1 [2]; Log [Compound] (M) -7.55284): 52.5063 and 42.0336; G15 hCB1 (hCB1 [2]; Log [Compound] (M) -7.55284): 113.933 and 98.6587; Gi1 hCB1 (hCB1 [2]; Log [Compound] (M) -7.55284): 97.1473 and 109.377 and 98.1802; Gi2 hCB1 (hCB1 [2]; Log [Compound] (M) -7.55284): 110.556 and 82.2578; GoB hCB1 (hCB1 [2]; Log [Compound] (M) -7.55284): 88.4435 and 120.01 and 87.3057; Gq hCB1 (hCB1 [2]; Log [Compound] (M) -7.55284): 1071; Gs hCB1 (hCB1 [2]; Log [Compound] (M) -7.55284): 6586; Gz hCB1 (hCB1 [2]; Log [Compound] (M) -7.55284): 92.0765 and 86.4032 and 85.0169; Barr2+GRK2 hCB1 (hCB1 [2]; Log [Compound] (M) -8): 45.4579 and 41.3741; G15 hCB1 (hCB1 [2]; Log [Compound] (M) -8): 112.381 and 101.184; Gi1 hCB1 (hCB1 [2]; Log [Compound] (M) -8): 95.7115 and 104.367 and 92.5898; Gi2 hCB1 (hCB1 [2]; Log [Compound] (M) -8): 103.223 and 88.1181; GoB hCB1 (hCB1 [2]; Log [Compound] (M) -8): 98.6892 and 112.511 and 89.2869; Gq hCB1 (hCB1 [2]; Log [Compound] (M) -8): 1060
